Laboratory results published in patent US20210246140A1, “MODULATORS OF METABOTROPIC GLUTAMATE RECEPTOR 2” (The General Hospital Corporation, priority 2020, published 2021).

Columns and labels:
[1] = Plasma protein binding assay (equilibrium dialysis, RED device); type: in vitro ADME; conditions: rat plasma
Procedure: Disposable RED device inserts (product 90006) were from Thermos Scientific (Waltham, Mass.). Each insert was made of two side-by-side chambers separated by a vertical cylinder of dialysis membrane (MWCO 8,000) validated for minimal non-specific binding. A stock solution of the test compound in DMSO was spiked into the rat plasma to reach a concentration of 10 μM. 400 μL of sample solution was placed into the sample chamber of the RED device, and 600 μL of phosphate-buffered saline (PBS) was added to the buffer chamber of the RED device. Samples were prepared in triplicates. The plate was covered with aluminum sealing cover and incubated at 37° C. on an orbital shaker at approximately 200 rpm for 5 h. After incubation, 300 μL of post-dialysis samples from the buffer and sample chambers were transferred to different microcentrifuge tubes. To the buffer sample was added 300 μL of plasma, and an equal volume of buffer was added to the collected plasma sample. 600 μL of cold acetonitrile was added to the samples, and the samples were vortexed and incubated for 30 min on ice and then were centrifuged at 14000 rpm for 10 min. Supernatant was transferred to vial for HPLC analysis (XTerra™ MS C18 5μ, 2.1×250 mm column; Gradient elution from 5% to 90% B in 30 min; 0.1 M ammonium formate in water (A) and acetonitrile (B); UV 254 nm; 100 μL of injection volume). The percentage of the test bound compound was calculated as % Free=(Concentration in buffer chamber/Concentration in plasma chamber)×100%; % Bound=100%−% Free (FIG. 6).
(§1) The experimental lipophilicity was measured by using liquid-liquid partition between n-octanol and water (“shake-flask method”) [see ref. 54]. […] The plasma protein binding comprises compounds' binding to albumin, α1-acid glycoprotein and lipoproteins once delivered to the bloodstream. This property was evaluated for compounds 1 and 2 by equilibrium dialysis [see ref. 56], where two chambers were separated by a dialysis membrane (MWCO 8 kD). The plasma protein bindings of 1 and 2 are 87.2% and 88.7%, respectively (see FIGS. 20 and 6). Therefore, the high plasma free fraction of compounds 1 and 2 (>10%) would allow enough free drug concentration in blood stream to reach the brain targets.

[2] = Microsomal stability in rat liver microsomes; type: in vitro ADME; conditions: rat liver microsomes with NADPH, ML128 as positive control
Procedure: Compound stability in rat liver microsomal was tested using a published method. [see refs. 57, 58] In a vial 1.5 μL of test compound (1 mM in DMSO stock solution) was mixed with 432 μL of PBS (50 mM, pH 7.4). The mixture was kept at 37° C. for 10 min before adding 13 μL of Sprague-Dawley rat liver microsomes (Sigma-Aldrich, No. M9066). The vial was vortexed and shaken at 37° C. for 5 min, followed by addition of 50 μL of NADPH (10 mM in PBS stock solution) to start the reaction. The mixture was incubated at 37° C. for 0, 5, 15, 30, 45 min, respectively, and quenched by addition of 250 μL of ice-cold acetonitrile and 3 μL of the internal standard (0.5 mM in DMSO). The quenched solutions were centrifuged at 10,000 g for 15 min. The supernatant was collected and quantitated by RP-HPLC (Phenomenex Luna® column 5 μC18, 100 Å, 250×4.6 mm; 0.7 mL/min, 15 min, Acetonitrile/water/0.1% FA). The procedure was repeated three times for each compound. Compound 1-OH was used as internal standard and compound ML128 served as positive control. The percentage of remaining intact test-compound was calculated by (peak area at the specific time point)/(peak area at 0 min)×100%. Each procedure was repeated three times (FIGS. 8 and 9). For FIG. 8, the natural logarithm (In) of peak area ratio (test compound peak area/internal standard peak area) was plotted against time and the gradient of the line was determined. Subsequently, the half-life (t1/2) min was calculated as 0.693/k, where the elimination rate constant (k) equals to negative gradient. V (μL/mg) was obtained as a ratio of volume of incubation (μL)/protein in the incubation (mg). Finally, the intrinsic clearance (CLint) (μL/min/mg protein) was calculated as V×0.693/t1/2.
(§2) The in vitro plasma and liver microsomal stability of 1 and 2 were studied by incubating the test compounds in rat serum and rat liver microsomes as well as NADPH cofactor, respectively, using previously published methods [see refs. 57, 58]. […] The solution stability of 1 was evaluated with buffer solutions at pH 5.0, 7.4 and 9.4, respectively (FIGS. 10 and 20) [see refs. 61].

Determination of Log P = type: physicochemical; conditions: experimental lipophilicity
Procedure: Determination of Log P The Log P was determined using a reversed-phase HPLC method. First, seven reference compounds were examined to obtain the linear regression of the log P against the log of capacity factors by the expression: log Pow=a+b*log k. The Log P of these reference compounds was already been determined. The capacity factor k was calculated by the expression: k=(tR−t0)/t0. The retention time tR of test compound was determined on the HPLC (Agilent 1260 infinity II LC System, XTerra™ MS Cis 5μ 2.1×250 mm, methanol/water=75/25, 0.25 mL/min). The dead-time to was measured by using thiourea. The linear regression equation of the Log P against the log of capacity factors was generated in Excel: log Pow=3.049+2.429*log k, where R^2 was 0.9964. The retention time of compound 1, 2, and 7 was also determined on the HPLC under the same condition and each test was repeated three times (FIG. 5).
as §1

mGluR2 = molecular target: T1, mGluR2 (Homo sapiens, UniProt Q14416); conditions: calcium flux, Gα15 or Gα16 forced coupling; read-out: previously reported mGluR2 EC50; cited from earlier work
T1 construct: expressed in transfected cells
T1 sequence (Q14416 19-872): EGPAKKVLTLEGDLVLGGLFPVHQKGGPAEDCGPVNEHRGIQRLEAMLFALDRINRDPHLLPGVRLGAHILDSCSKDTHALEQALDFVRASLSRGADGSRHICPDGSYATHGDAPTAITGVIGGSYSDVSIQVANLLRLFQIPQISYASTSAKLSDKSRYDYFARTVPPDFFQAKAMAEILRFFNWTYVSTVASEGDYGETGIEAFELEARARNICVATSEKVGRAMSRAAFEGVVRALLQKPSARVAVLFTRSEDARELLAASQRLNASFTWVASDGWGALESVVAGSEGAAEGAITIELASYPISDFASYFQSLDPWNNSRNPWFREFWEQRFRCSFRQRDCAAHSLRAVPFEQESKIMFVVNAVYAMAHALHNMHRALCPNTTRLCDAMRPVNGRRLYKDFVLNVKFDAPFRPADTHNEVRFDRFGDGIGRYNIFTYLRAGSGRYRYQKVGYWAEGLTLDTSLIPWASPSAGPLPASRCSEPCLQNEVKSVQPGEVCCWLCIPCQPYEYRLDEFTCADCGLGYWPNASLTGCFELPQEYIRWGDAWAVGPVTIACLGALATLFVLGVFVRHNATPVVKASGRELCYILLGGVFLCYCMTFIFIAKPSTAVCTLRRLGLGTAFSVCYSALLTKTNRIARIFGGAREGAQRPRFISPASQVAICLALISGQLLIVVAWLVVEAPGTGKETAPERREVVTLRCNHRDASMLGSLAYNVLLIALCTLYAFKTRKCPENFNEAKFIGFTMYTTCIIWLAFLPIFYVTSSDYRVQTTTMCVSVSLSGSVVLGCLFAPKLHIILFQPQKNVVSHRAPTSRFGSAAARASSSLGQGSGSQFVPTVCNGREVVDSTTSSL

[3] = Plasma stability in rat serum; type: in vitro ADME; conditions: 37° C., diltiazem as positive control
Procedure: Compound stability in rat serum was examined using a published method. [See ref. 57] Rat serum (100 μL, Abeam, Inc, No. ab7488) and test compound or control compound (2.5 μL, 1 mM in DMSO) was added to the individual tube. The tube was vortexed and incubated at 37° C. During the incubation, aliquots of 50 μL samples were quenched with ice-cold acetonitrile at 0, 15, 30, 60, and 120 min time points, respectively. After mixing, the quenched samples were centrifuged, and the supernatant was withdrawn for analysis by HPLC (Agilent 1260 infinity II LC System, XTerra™ MS C18, 5μ, 2.1×250 mm, 20 mM ammonium formate (A)/acetonitrile (B), 0.25 mL/min, gradient of 5% to 100% B). The samples were assayed at least three times. Compound 1-OH was used as internal standard while diltiazem was used as a positive control. The percentage remaining was calculated by (peak area at the specific time point)/(peak area at 0 min)×100% (FIG. 7).
as §2

mGluR2 in rat brain = mGluR2 in rat brain (Rattus norvegicus, UniProt P31421); experiment: In vivo PET imaging of [11C]1 in rat brain with blocking studies
mGluR2 in rat brain, sequence (P31421 19-872): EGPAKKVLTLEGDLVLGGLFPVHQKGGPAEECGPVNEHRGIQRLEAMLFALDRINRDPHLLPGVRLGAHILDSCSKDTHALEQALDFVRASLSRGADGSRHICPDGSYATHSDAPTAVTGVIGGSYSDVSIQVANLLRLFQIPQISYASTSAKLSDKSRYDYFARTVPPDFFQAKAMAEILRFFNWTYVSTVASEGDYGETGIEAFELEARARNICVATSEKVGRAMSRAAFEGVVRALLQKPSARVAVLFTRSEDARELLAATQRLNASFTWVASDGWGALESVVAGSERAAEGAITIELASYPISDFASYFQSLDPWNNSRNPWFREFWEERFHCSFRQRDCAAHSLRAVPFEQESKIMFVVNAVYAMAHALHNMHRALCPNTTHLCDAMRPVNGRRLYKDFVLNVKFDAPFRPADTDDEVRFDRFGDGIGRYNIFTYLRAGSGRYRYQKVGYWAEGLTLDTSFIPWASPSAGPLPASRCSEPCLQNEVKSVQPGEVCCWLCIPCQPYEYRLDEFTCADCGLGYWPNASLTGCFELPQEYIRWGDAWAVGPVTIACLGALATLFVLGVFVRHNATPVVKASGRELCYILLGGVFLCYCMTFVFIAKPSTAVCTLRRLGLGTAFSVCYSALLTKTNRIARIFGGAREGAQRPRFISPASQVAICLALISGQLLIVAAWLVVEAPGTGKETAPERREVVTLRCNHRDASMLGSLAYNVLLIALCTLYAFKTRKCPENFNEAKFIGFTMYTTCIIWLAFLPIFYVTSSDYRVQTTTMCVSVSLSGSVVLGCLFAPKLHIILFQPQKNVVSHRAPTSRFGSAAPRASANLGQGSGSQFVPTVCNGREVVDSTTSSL
Procedure: The rats were adjusted into the scanner for imaging position (Triumph II Preclinical Imaging System, Trifoil Imaging, LLC, Northridge, Calif.). The vital signs such as heart rate and/or breathing were monitored throughout the imaging. […] The “cold” compounds were administered (i.v., 4 mg/kg) 10 min before the radioactivity. CT scan was performed after every PET imaging study to obtain anatomical information and correction for attenuation. […] The ROIs, i.e., whole brain, thalamus, cerebellum, striatum, and cortex, were drawn onto coronal PET slices according to the brain outlines as derived from the rat brain atlas and corresponding TACs (time-activity curves) were created by PMOD 3.2 (PMOD Technologies Ltd., Zurich, Switzerland). Percent changes between the control and blocking studies were calculated in the selected brain areas at the 10-30 min time window after injection of [^11C]1.
The characterization of [11C]1 was conducted with rat (male Sprague-Dawley) studies. […] The rats were adjusted into the scanner for imaging position (Triumph II, Trifoil Imaging Inc, Northridge, Calif.). The vital signs such as heart rate and/or breathing were monitored throughout the imaging. […] When the blocking studies were done the imaging procedures started with the baseline study using [^11C]1 followed by 2 hrs later the blocking agent and another administration of [^11C]1 in the same animal. The blocking agent was administered intravenously 2 min before injection of the second [^11C]1 if self-blocking, 10 min before [^11C]1 if blocking was with JNJ The dynamic PET data was acquired starting from the injection of radioactivity and continued for 60 min. After the dynamic PET data acquisition CT imaging was done to obtain data for attenuation as well as anatomical information of the brain. […] Percent changes between the control and blocking studies were calculated in all brain areas. […]

recombinant human P-gp = recombinant human P-gp (Homo sapiens, UniProt P08183); experiment: P-gp ATPase assay (Pgp-Glo assay); type: biochemical; conditions: human P-gp membrane, verapamil as positive control
recombinant human P-gp, sequence (P08183 whole entry): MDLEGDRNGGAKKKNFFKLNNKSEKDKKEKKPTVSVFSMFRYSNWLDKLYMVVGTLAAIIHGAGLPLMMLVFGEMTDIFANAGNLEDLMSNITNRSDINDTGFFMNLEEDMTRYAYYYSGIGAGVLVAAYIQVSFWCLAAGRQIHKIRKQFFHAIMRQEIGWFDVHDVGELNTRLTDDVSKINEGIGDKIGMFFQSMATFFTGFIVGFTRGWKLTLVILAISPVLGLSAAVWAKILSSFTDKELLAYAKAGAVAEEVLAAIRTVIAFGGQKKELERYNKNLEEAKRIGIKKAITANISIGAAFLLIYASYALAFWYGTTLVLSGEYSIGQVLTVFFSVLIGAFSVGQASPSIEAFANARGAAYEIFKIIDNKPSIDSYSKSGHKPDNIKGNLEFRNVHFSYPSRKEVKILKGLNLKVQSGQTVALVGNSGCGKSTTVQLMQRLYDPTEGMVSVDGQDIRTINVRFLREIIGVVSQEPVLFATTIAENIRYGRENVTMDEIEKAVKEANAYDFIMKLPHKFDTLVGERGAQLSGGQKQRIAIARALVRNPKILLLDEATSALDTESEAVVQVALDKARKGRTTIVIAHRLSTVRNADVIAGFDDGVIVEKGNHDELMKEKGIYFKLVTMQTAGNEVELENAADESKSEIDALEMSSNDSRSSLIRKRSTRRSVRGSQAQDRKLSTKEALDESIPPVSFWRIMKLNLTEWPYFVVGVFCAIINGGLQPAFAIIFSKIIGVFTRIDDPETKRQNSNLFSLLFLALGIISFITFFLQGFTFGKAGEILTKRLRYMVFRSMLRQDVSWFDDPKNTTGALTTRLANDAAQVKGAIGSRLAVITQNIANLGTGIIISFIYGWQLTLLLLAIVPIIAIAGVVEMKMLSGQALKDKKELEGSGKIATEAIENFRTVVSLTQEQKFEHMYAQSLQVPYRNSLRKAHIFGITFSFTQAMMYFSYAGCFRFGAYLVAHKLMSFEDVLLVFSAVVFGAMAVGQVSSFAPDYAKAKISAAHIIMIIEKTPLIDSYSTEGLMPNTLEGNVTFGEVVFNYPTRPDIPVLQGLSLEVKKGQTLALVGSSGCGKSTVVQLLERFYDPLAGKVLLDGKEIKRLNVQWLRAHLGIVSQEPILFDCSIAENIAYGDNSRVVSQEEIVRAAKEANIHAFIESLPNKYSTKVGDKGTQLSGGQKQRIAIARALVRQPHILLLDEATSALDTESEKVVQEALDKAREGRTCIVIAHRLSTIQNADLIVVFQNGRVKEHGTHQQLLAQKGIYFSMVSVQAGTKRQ
Procedure: P-gp ATPase activity was measured with the Pgp-Glo™ assay system with human P-gp membrane by following the manufacturer's instructions (Promega, Co. USA). The assay relies on the ATP dependence of the light-generating reaction of firefly luciferase. Briefly, 25 μg of P-gp membrane was incubated at 37° C. with one of these samples including Na3VO4 (100 μM), solvent control (0.1% DMSO), quercetin (100 μM), the test compound (200 μM), verapamil (100 μM), verapamil (100 μM) plus the test compound (100 μM). The ATPase reaction was initiated by addition of MgATP (5 mM) and followed by incubation for 40 min at 37° C. The reaction was stopped, and the remaining unmetabolized ATP was detected as a luciferase-generated luminescence signal by addition of ATP detection reagent. Following a room-temperature signal-stabilization period (20 min), luminescence was read on a Veritas microplate luminometer (Tuner Designs, San Francisco, Calif.). P-gp ATPase activity was presented as a drop-in luminescence of samples compared to that treated with Na3VO4.
We further evaluated compounds 1, 2, and 7 using Pgp-Go™ assay to investigate whether the brain penetration will be affected by P-glycoprotein (P-gp) efflux transporter. The Pgp-Go™ assay [see ref. 63] was carried out on recombinant human P-gp in a cell membrane fraction. […]

[4] = Ex vivo whole body biodistribution of [11C]1; type: in vivo, Sprague Dawley rats
Procedure: The quantitative biodistribution of [^11C]1 was done using 16 healthy Sprague Dawley rats (weight 330-370 g). After anesthetization (2% isoflurane with oxygen flow of 1.5 L/min) the rats were administrated with the [^11C]1 (30-42 MBq (0.81-1.14 mCi) using tail vein injection and sacrificed by decapitation at the time points 5, 20, 30 or 40 min after administration of the radioactivity. The tissue samples including blood, midbrain, cerebellum, cortex, lung, heart, liver, spleen, kidney and muscle were rapidly collected into pre-weighted gamma-counting tubes and measured with standards (samples of [^11C]1) using PerkinElmer Wizard2 2480 gamma-counter. Tubes were weighted, and the net mass of the tissue samples was determined and the percent of the injected radioactivity (% ID/g) in the samples was calculated.
The ex vivo biodistribution was performed in 16 normal male Sprague Dawley rats after intravenous injection of [^11C]1 at several time points (5, 20, 30 and 40 min). The uptake value is expressed in the unit of % ID/g. […] The highest accumulation was measured in the liver (2.73±0.02% ID/g) followed by kidney (1.05±0.07% ID/g), spleen (0.67±0.05% ID/g), lung (0.59±0.04% ID/g), and heart (0.58±0.05% ID/g). […] The average accumulation of [^11C]1 in the rat brain at 5 min was (0.49±0.07% ID/g) (FIG. 22).

## COc1cc(C(F)(F)F)ccc1C1CCN(Cc2nc3nccc4c3n2CCC4)CC1 [Compound 2]
[1]; equilibrium dialysis, 10 μM
  plasma protein binding: 88.7%
[1]; read-out: plasma free fraction
  fraction unbound at 5 h, 10 μM: > 0.1
[2]
  microsomal stability: reasonable microsomal stability
Determination of Log P
  Log P: 3.86
mGluR2
  EC50: 5 nM
[3]
  stability in rat plasma: much more stable than diltiazem

## Fc1ccc(N2CCN(Cc3ccn4c(CC5CC5)nnc4c3C(F)(F)F)CC2)c(F)c1 [Compound 3, 8-Trifluoromethyl-3-cyclopropylmethyl-7-[(4-(2,4-difluorophenyl)-1-piperazinyl)methyl]-1,2,4-triazolo[4,3-a]pyridine, reference compound]
mGluR2 in rat brain; 4 mg/kg i.v. 10 min before [11C]1, 10-30 min time window
  decrease of [11C]1 uptake in different brain areas after pretreatment: 28-37%

## COc1cc(C(F)(F)F)ccc1OC[C@@H]1[C@H]2CN(Cc3nc4ncccc4n3C)C[C@@H]12 [Compound 7]
Recombinant human P-gp
  P-gp substrate assessment / P-gp ATPase activity: a potential P-gp substrate
Determination of Log P; n-octanol/water
  log P: 3.3

## Cn1c(CN2CCC(c3ccc(C(F)(F)F)cc3O[11CH3])CC2)nc2ncccc21 [[^11C]1]
mGluR2 in rat brain; rat PET, n=9
  SUVmax in brain: 1.8±0.2
mGluR2 in rat brain; rat PET, thalamus at 2 min post-injection
  maximum SUV (time-activity curves): 2.3
[4]; i.v. [11C]1, brain at 5 min
  average accumulation in the rat brain: 0.49±0.07 % ID/g
[4]; rat, i.v. [11C]1, heart
  highest accumulation in heart: 0.58±0.05 % ID/g
[4]; rat, i.v. [11C]1, kidney
  highest accumulation in kidney: 1.05±0.07 % ID/g
[4]; rat, i.v. [11C]1, liver
  highest accumulation in liver: 2.73±0.02 % ID/g
[4]; rat, i.v. [11C]1, lung (maximum at 20 min)
  highest accumulation in lung: 0.59±0.04 % ID/g
[4]; rat, i.v. [11C]1, spleen
  highest accumulation in spleen: 0.67±0.05 % ID/g
